Reference: patent US20110230359A1, “LABEL-FREE ON-TARGET PHARMACOLOGY METHODS” (priority 2010, published 2011)

Assays:
[1] = tested on: EGFR; assay: modulation profiling DMR assay, marker EGF, A431 cells; type: cell-based, human; conditions: 10 μM salbutamol pretreatment ~1 hr, 32 nM epidermal growth factor
[2] = tested on: GPR109A; assay: modulation profiling DMR assay, marker nicotinic acid, A431 cells; type: cell-based, human; conditions: 10 μM salbutamol pretreatment ~1 hr, 1 μM nicotinic acid

SMILES: CC(C)(C)NCC(O)c1ccc(O)c(CO)c1 (centres unmarked) [salbutamol]
- modulation of EGF DMR (P-DMR and N-DMR) [1]: little impact
- modulation of nicotinic acid DMR (P-DMR) [2]: potentiates
